A short description of series [1]: in vivo. The settings on record: rat, po, 2 mg/kg.
Series [2] in a line: in vivo. The settings on record: rat, iv, 1 mg/kg.
Series [3] in a line: in vivo. The settings on record: rat, iv, 1 mg/kg. The source holds these as a separate data set.
Description: Volume of distribution at steady state was determined in rat after intravenous administration of 1 mg/kg compound
In series [4] the target is Cannabinoid receptor 2 (Homo sapiens, UniProt P34972).
Description: Inhibitory concentration tested against human Cannabinoid receptor 2 (hCB2)
Series [5] in a line: in vivo. The settings on record: rat, iv, 1 mg/kg. The source holds these as a separate data set.
Description: Half life period was determined in rat after intravenous administration of 1 mg/kg compound

The results in this text go back to ChEMBL document CHEMBL1144282, “Synthesis and SAR of 5,6-diarylpyridines as human CB1 inverse agonists” (Bioorg Med Chem Lett, 2005).

Sequence of Cannabinoid receptor 2 (P34972 whole entry): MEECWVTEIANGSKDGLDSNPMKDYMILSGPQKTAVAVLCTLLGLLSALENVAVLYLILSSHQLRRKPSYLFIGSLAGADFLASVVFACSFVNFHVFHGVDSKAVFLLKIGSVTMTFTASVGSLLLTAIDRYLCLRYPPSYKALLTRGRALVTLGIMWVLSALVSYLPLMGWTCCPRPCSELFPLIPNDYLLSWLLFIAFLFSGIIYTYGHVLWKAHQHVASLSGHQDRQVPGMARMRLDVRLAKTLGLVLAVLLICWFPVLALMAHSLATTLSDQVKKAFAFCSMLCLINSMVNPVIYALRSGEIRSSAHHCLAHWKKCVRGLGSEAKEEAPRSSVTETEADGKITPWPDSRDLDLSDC

As to `CCCNC(=O)c1cc(-c2ccc(Cl)cc2)c(-c2ccc(Cl)cc2Cl)nc1OCc1ccc(F)c(F)c1`, in series [1], the bioavailability (usually dose-corrected exposure relative to a reference, in per cent) worked out at 12%. The clearance (commonly a measure of how efficiently the substance is removed, as volume per time) in series [2] worked out at 5.8 mL/min/kg. Also, in series [3], the volume of distribution (Vd) (in general, a proportionality between amount in the body and measured concentration, not a real space) was 0.4 L/kg. Besides, the concentration for half-maximal inhibition (IC50) (in general, the concentration that gives 50% inhibition) in series [4] turned out to be 815 nM. Also, in series [5], the half-life (usually the time needed for the level to fall by half in the phase considered) is 2.5 h.
